We go through 11 molecules from US20240182460A1, “ALLOSTERIC CHROMENONE INHIBITORS OF PHOSPHOINOSITIDE 3-KINASE (PI3K) FOR THE TREATMENT OF DISEASE” (PETRA PHARMA CORPORATION, priority 2022, published 2024).

The nature of data set [1]: Metabolic stability and intrinsic clearance in human liver microsomes (MICS). Particulars: human, microsomes, pH 7.4. In kind it is in vitro ADME. The procedure: Metabolic Stability and Intrinsic Clearance in Liver Microsomes (MICS)
One objective of this assay is to measure in vitro metabolic stability of a test compound in liver microsomes of one or more different species. The concentration of a control compound in the reaction system is evaluated by LC/MS/MS for calculating intrinsic clearance of a test compound and estimating the stability of the control compound and test compound in liver microsomes of one or more different species.
Microsomes (MICS). Human Liver Microsomes (HLM), Monkey Liver Microsomes (MKLM), Dog Liver Microsomes (DLM), Rat Liver Microsomes (RLM), and Mouse Liver Microsomes (MLM) are obtained at a concentration of 20 mg/mL protein from commercial sources and stored in a −80° C. freezer. Prior to use, liver microsomes are removed from the freezer and allowed to thaw in a 37° C. water bath and then stored on wet ice.
Stock Solutions. Test Compound (TC) Stock Solutions are prepared in DMSO at a concentration of 10 mM and stored for later use. Positive Control (PC) Stock Solutions of verapamil·HCL (FW: 491.1 g/mol) in DMSO are prepared at a concentration of 10 mM (4.91 mg/mL), and stored at the condition same as the stock solutions of test compounds.
Phosphate Buffer. Phosphate Buffer (100 mM, pH 7.4) is prepared by combining a Solution A and a Solution B as follows.
To prepare Solution A, 7.098 g of disodium hydrogen phosphate was combined with 500 mL of pure water and sonicated to dissolve. To prepare the Solution B, 3.400 g of potassium dihydrogen phosphate was combined with 250 mL of pure water and sonicated to dissolve. Solution A was placed on a stirrer and Solution B was slowly added into Solution A until the pH reached 7.4.
NADPH Solution. A 10 mM NADPH Solution is prepared by dissolving NADPH (MW: 833.4 g/mol) at 8.334 mg/mL in phosphate buffer (100 mM, pH 7.4).
Microsome Master Solution. A Microsome Master Solution is prepared by adding 6.25 μL microsomes (20 mg/mL) to 216.25 μL Phosphate Buffer (100 mM). The final concentration is Phosphate Buffer (100 mM); microsomes (0.5 mg/mL).
Dilution of Stock Solutions. The TC Stock Solutions (10 mM in DMSO) and the PC Stock Solutions (10 mM in DMSO) are diluted by adding 3 μL of the TC Stock Solution or the PC Stock Solution to 297 μL of 50% acetonitrile/50% water.
Incubation. Two separated experiments were performed as follows. a) With Cofactors (NADPH): 25 μL of 10 mM NADPH was added to the incubations. The final concentrations of
microsomes and NADPH were 0.5 mg/mL and 1 mM, respectively. b) Without Cofactors (NADPH): 25 μL of 100 mM Phosphate buffer was added to the incubations. The final concentration of microsomes was 0.5 mg/mL. The mixture was pre-warmed at 37° C. for 10 minutes.
The reaction was started with the addition of 2.5 μL of 100 μM PC solution or TC solutions.
Verapamil was used as PC in this study. The final concentration of test compound or control compound was 1 μM. The incubation solution was incubated in water batch at 37° C.
Reaction Termination. Aliquots of 30 μL were taken from the reaction solution at 0.5, 5, 15, 30 and 60 minutes and added to plates. The reaction was stopped by the addition of 5 volumes of cold acetonitrile and a solution containing 100 nM alprazolam, 200 nM caffeine and 100 nM tolbutamide.
Sampling. The plates containing the terminated reactions were centrifuged at 4000 rpm for 30 minutes. Supernatant of each compound (40 μL) was transferred into a 96-well analysis plate.
Four compound samples are pooled together into one cassette and diluted by adding 160 μL of pure water. All incubations are performed in duplicate.
Analysis and Data Processing. Quantitative LC-MS analysis is performed, and peak areas are determined from extracted ion chromatograms. Percent parent remaining was calculated from peak area of TC or PC. The slope value, k, is determined by linear regression of the natural logarithm of percent parent remaining vs. incubation time curve. […]

The target of a further data set is PI3Kα E545K (Homo sapiens, UniProt P42336, E545K). The experiment in a line: PI3Kα E545K mutant in vitro cell based assay, MDA-MB-361 cells. The note with it: MDA-MB-361 cell line, 0% FBS, no insulin, 3 hours treatment. On the set-up: MDA-MB-361 (ATCC-HTB-27) cell line (PI3Kα E545K); host or cells: MDA-MB-361. An excerpt:
PI3K-Alpha Kinase (PI3Kα) Activity: Wild-Type PI3Kα, H1047R Mutant PI3Kα, and E545K Mutant PI3Kα In Vitro Cell Based Assays and Determination of IC50 Values for Inhibitors
The MDA-MB-453 (ATCC-HTB-131) cell line (PI3Kα H1047R) and MCF-7 (ATCC-HTB-22) cell line (PI3Kα E545K), MDA-MB-361 (ATCC-HTB-27) cell line (PI3Kα E545K), and SKBR3 (ATCC-HTB-30) cell line (wild type PI3Kα) were obtained from the American Type Culture Collection (Manassas, VA). MDA-MB-453 cells were maintained in Dulbecco's Modified Eagle Media (DMEM, Gibco 12430) supplemented with 10% Fetal Bovine Serum, heat inactivated (FBS HI, Gibco 10082), 1× non-essential amino acids (NEAA, Gibco 11140), 1 mM sodium pyruvate (Gibco 11360) and 1× Anti-Anti (Gibco 15240). MCF-7 cells were maintained in Minimum Essential Media (MEM) (Gibco 11095) supplemented with 10% Fetal Bovine Serum, heat inactivated (FBS HI, Gibco 10082), 1× non-essential amino acids (NEAA, Gibco 11140), 1 mM sodium pyruvate (Gibco 11360), 1× Anti-Anti (Gibco 15240) and 10 μg/mL human insulin (Sigma I 9278). MDA-MB-361 cells were maintained in Dulbecco's Modified Eagle Media (DMEM, Gibco 12430) supplemented with 20% Fetal Bovine Serum, heat inactivated (FBS HI, Gibco 10082), 1× non-essential amino acids (NEAA, Gibco 11140), 1 mM sodium pyruvate (Gibco 11360) and 1× Anti-Anti (Gibco 15240). SKBR3 cells were maintained in McCoy's 5A (Gibco 16600) supplemented with 10% Fetal Bovine Serum, heat inactivated (FBS HI, Gibco 10082), and 1× Anti-Anti (Gibco 15240). Cultures were maintained in a humidified incubator at 37° C. under 5% CO2/95% air.
For compound testing in 0% FBS, MDA-MB-453, MCF-7 and SKBR3 cells were seeded at a density of 1.5×10^4, 1.0×10^4, and 1.0×10^4 cells, respectively, per well in white 384-well plates in 20 μl of Minimum Essential Media (MEM) assay media with 1×NEAA, 1 mM sodium pyruvate, and 1 μg/mL human insulin (Sigma 19278) (Assay Medium); while MDA-MB-361 cells were seeded at a density of 1.5×10^4 per well in white 384-well plates in 20 μl Assay Medium without insulin. After plating, cells were allowed to attach overnight. Compounds dissolved in 10 mM stock solutions in DMSO were serially diluted 1:3 in DMSO to generate a 10-point dilution series and plated using an acoustic liquid handler system (Echo 550 Series Liquid Handler, Labcyte). A 5× intermediate compound dilution plate in MEM with 1×NEAA and 1 mM sodium pyruvate (150 μM starting compound concentration in 1.5% DMSO) was then prepared. Five μl of the intermediate serially diluted compounds were added to the cell plate to final concentrations ranging from […] in 0.3% DMSO. 0.3% DMSO alone was used to establish the maximum (MAX) signal and GDC-0032 at a final concentration of 1 μM was used as a reference compound for the minimum (MIN) signal. After 3 hours treatment, the medium was removed, and the cells were lysed in 10 μL of 1× SureFire Lysis buffer with shaking for 10 minutes at room temperature. The Acceptor Mix (Reaction Buffer 1+Reaction Buffer 2+Activation Buffer+SureFire Ultra Acceptor Beads) was prepared by diluting Activation buffer 25-fold in combined Reaction Buffer 1 and Reaction Buffer 2.
The Acceptor beads were diluted 50-fold in the combined Reaction Buffers. Five μL of Acceptor Mix was added to each well, the plate was sealed and covered with foil and incubated for 1 hour at room temperature. The Donor Mix (dilution buffer+SureFire Ultra Donor Beads) was prepared by diluting Donor Beads 50-fold in dilution buffer. Five μL of the Donor Mix was added to each well and the plate sealed and covered with foil and incubated for 1-2 hours at room temperature in the dark. The plates were read on a Neo2 plate reader instrument from Biotek using standard AlphaLisa settings.
Compounds were tested in duplicate and the % inhibition at each compound concentration was used to generate two dose response curves. One IC50 was generated using average % inhibition at each compound concentration. […]

Chain of PI3Kα E545K (P42336 whole entry E545K): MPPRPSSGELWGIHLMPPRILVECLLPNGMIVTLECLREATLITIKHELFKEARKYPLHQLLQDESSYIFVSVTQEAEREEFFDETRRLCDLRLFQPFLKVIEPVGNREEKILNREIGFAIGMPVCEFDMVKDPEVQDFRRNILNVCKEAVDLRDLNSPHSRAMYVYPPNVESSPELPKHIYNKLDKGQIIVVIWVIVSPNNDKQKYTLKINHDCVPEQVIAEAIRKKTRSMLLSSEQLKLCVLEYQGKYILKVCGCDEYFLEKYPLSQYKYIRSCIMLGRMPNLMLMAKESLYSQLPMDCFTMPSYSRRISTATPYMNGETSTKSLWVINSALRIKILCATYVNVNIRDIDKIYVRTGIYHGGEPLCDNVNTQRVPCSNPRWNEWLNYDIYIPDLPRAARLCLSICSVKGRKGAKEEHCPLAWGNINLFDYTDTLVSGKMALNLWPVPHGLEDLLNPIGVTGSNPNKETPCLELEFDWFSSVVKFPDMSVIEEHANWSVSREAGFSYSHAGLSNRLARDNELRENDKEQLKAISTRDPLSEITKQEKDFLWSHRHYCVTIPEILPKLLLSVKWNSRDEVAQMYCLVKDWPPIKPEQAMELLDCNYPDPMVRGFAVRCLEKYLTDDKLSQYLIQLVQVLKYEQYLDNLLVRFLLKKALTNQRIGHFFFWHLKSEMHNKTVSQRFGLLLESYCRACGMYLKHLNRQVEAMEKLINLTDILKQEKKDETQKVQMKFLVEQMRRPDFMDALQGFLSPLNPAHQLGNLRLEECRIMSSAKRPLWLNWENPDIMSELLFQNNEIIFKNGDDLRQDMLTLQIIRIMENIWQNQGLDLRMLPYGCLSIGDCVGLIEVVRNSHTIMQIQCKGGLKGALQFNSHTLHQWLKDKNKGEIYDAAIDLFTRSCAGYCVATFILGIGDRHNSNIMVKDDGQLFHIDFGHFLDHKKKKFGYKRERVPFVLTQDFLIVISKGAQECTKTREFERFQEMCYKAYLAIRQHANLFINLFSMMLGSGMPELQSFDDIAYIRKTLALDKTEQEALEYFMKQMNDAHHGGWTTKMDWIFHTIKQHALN
Chain of PI3Kα E545K (P27986 whole entry partner): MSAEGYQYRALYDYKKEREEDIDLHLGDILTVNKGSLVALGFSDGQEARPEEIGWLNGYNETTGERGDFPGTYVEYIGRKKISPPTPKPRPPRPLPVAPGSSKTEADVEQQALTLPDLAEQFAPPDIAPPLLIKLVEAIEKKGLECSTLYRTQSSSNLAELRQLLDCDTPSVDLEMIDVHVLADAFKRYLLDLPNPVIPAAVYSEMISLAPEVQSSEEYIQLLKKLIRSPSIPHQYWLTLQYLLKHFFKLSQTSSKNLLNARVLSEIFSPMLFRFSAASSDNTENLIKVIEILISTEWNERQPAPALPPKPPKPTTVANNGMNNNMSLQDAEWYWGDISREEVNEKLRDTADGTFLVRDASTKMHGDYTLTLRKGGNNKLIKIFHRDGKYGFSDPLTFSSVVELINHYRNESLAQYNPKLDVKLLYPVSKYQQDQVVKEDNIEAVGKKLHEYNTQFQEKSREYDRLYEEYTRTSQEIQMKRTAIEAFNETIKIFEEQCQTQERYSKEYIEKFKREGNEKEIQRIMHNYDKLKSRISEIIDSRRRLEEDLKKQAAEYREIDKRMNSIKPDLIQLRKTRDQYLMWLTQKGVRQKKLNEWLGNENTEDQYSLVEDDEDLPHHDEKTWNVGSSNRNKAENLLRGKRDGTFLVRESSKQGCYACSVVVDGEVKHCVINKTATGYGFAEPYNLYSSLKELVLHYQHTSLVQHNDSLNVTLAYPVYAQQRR

Broadly, the microsomal CLint is the rate of metabolic loss divided by the concentration. Higher therefore signals rapid turnover. Broadly, the IC50 is the concentration needed to halve the response being measured. The low end stands for higher potency, the high end for lower potency. Regarding `Cc1cc([C@@H](C)Oc2ccc(Cl)nc2S(N)(=O)=O)c2oc(-c3cnn(CC(C)(C)O)c3)c(C)c(=O)c2c1` [Example 2B, 6-Chloro-3-[(1R)-1-[2-[1-(2-hydroxy-2-methyl-propyl)pyrazol-4-yl]-3,6-dimethyl-4-oxo-chromen-8-yl]ethoxy]pyridine-2-sulfonamide], in data set [1], the microsomal CLint at 1 μM is below 50 µL/min/mg. At PI3Kα E545K, the IC50 was below 0.5 µM.

`Cc1cc([C@@H](C)Oc2ccc(Cl)nc2S(N)(=O)=O)c2oc(-c3cnn(C[C@@H](C)O)c3)c(C)c(=O)c2c1` [Example 4B, 6-Chloro-3-[(1R)-1-[2-[1-[(2R)-2-hydroxypropyl]pyrazol-4-yl]-3,6-dimethyl-4-oxo-chromen-8-yl]ethoxy]pyridine-2-sulfonamide]: the microsomal CLint at 1 μM in data set [1] was below 50 µL/min/mg. Moreover, the IC50 at PI3Kα E545K was below 0.5 µM.

Molecule `Cc1cc([C@@H](C)Oc2ccc(Cl)nc2C(N)=O)c2oc(-c3ccc4nn(C)cc4c3)c(C)c(=O)c2c1` [Example 11A, 6-Chloro-3-[(1R)-1-[3,6-dimethyl-2-(2-methylindazol-5-yl)-4-oxo-chromen-8-yl]ethoxy]pyridine-2-carboxamide] had an intrinsic metabolic clearance (microsomal CLint) at 1 μM in data set [1] below 50 µL/min/mg. The same molecule yielded an IC50 at PI3Kα E545K below 0.5 µM.

Molecule `Cc1cc([C@@H](C)Oc2ccc(Cl)nc2S(N)(=O)=O)c2oc(-c3cnc4ccoc4c3)c(C)c(=O)c2c1` [Example 22C, 6-Chloro-3-[(1R)-1-(2-furo[3,2-b]pyridin-6-yl-3,6-dimethyl-4-oxo-chromen-8-yl)ethoxy]pyridine-2-sulfonamide] displayed a microsomal CLint at 1 μM in data set [1] below 50 µL/min/mg. The half-inhibitory concentration (IC50) against PI3Kα E545K was below 0.5 µM.

Consider `Cc1cc([C@@H](C)Oc2ccc(F)nc2S(N)(=O)=O)c2oc(-c3ccccc3)c(C)c(=O)c2c1` [Example 74C, 3-[(1R)-1-(3,6-Dimethyl-4-oxo-2-phenyl-chromen-8-yl)ethoxy]-6-fluoro-pyridine-2-sulfonamide], for which the microsomal CLint at 1 μM in data set [1] was below 50 µL/min/mg. In addition, the concentration for half-maximal inhibition (IC50) at PI3Kα E545K was below 0.5 µM.

The molecule `CCn1cc2cc(-c3oc4c([C@@H](C)Oc5ccc(Cl)nc5C(N)=O)cc(C)cc4c(=O)c3C)ccc2n1` [Example 75C, 6-Chloro-3-[(1R)-1-[2-(2-ethylindazol-5-yl)-3,6-dimethyl-4-oxo-chromen-8-yl]ethoxy]pyridine-2-carboxamide] gave a microsomal CLint at 1 μM in data set [1] below 50 µL/min/mg. This molecule had a half-inhibitory concentration (IC50) against PI3Kα E545K below 0.5 µM.

For the molecule `Cc1cc([C@@H](C)Oc2ccc(Cl)nc2C(N)=O)c2oc(-c3cnc(OC(C)C)nc3)c(C)c(=O)c2c1` [Example 79C, 6-Chloro-3-[(1R)-1-[2-(2-isopropoxypyrimidin-5-yl)-3,6-dimethyl-4-oxo-chromen-8-yl]ethoxy]pyridine-2-carboxamide], in data set [1], the microsomal CLint at 1 μM was below 50 µL/min/mg. Also, the IC50 at PI3Kα E545K is below 0.5 µM.

In turn, `Cc1cc([C@@H](C)Oc2ccc(Cl)nc2C(N)=O)c2oc(-c3cnc4ccoc4c3)c(C)c(=O)c2c1` [Example 80C, 6-Chloro-3-[(1R)-1-(2-furo[3,2-b]pyridin-6-yl-3,6-dimethyl-4-oxo-chromen-8-yl)ethoxy]pyridine-2-carboxamide] displayed a microsomal CLint at 1 μM in data set [1] below 50 µL/min/mg. The half-maximal inhibitory concentration (IC50) at PI3Kα E545K was below 0.5 µM.

In the case of `Cc1cc([C@@H](C)Oc2ccc(Cl)cc2S(N)(=O)=O)c2oc(-c3cnn(C)c3)c(C)c(=O)c2c1` [Example 99C, 5-Chloro-2-[(1R)-1-[3,6-dimethyl-2-(1-methylpyrazol-4-yl)-4-oxo-chromen-8-yl]ethoxy]benzenesulfonamide], the microsomal CLint at 1 μM in data set [1] is below 50 µL/min/mg. In addition, on PI3Kα E545K, the half-maximal inhibitory concentration (IC50) was below 0.5 µM.

In data set [1], `Cc1cc([C@@H](C)Oc2ccc(Cl)cc2S(N)(=O)=O)c2oc(C3CC3)c(C)c(=O)c2c1` [Example 101C, 5-Chloro-2-[(1R)-1-(2-cyclopropyl-3,6-dimethyl-4-oxo-chromen-8-yl)ethoxy]benzenesulfonamide] came in with a microsomal CLint at 1 μM below 50 µL/min/mg. For the same molecule, the half-maximal inhibitory concentration (IC50) against PI3Kα E545K was below 0.5 µM.

For `Cc1cc([C@@H](C)Oc2ccc(F)cc2S(N)(=O)=O)c2oc(-c3cnn(C)c3)c(C)c(=O)c2c1` [Example 105C, 2-[(1R)-1-[3,6-Dimethyl-2-(1-methylpyrazol-4-yl)-4-oxo-chromen-8-yl]ethoxy]-5-fluoro-benzenesulfonamide], the microsomal CLint at 1 μM in data set [1] was below 50 µL/min/mg. At PI3Kα E545K, this molecule returned an IC50 below 0.5 µM.
